A short description of series [1]: Inhibition of Haemonchus contortus by L4 development assay. In kind it is functional.
The nature of series [2]: Toxicity in human MCF-10A cells. The class given is cell-based.
Series [3] is described as follows: Selectivity index, ratio of IC50 for toxicity in rat FAO cells assessed as reduction in cellular respiration to IC50 for inhibition of Haemonchus contortus by L4 development assay.
Series [4] is described as follows: Toxicity in rat FAO cells assessed as reduction in cell proliferation incubated for 48 hrs by crystal violet staining based assay.
Series [5] can be described thus: Toxicity in rat FAO cells assessed as reduction in cellular respiration incubated over 1 hrs by extracellular flux analyzer based assay. In kind it is cell-based.
The nature of series [6]: Toxicity in orally dosed Swiss mouse assessed as induction of observable clinical effects measured 2 to 4 days after dosing. In kind it is organism-based. The following applies: in vivo, po, time 2-4 day.
Series [7] in a line: Toxicity in male Swiss mouse assessed as induction of reversible motor depression at 50 mg/kg, po. In kind it is organism-based. The conditions noted are these: in vivo.
Series [8] in a line: Toxicity in female Swiss mouse assessed as induction of reversible motor depression at 30 mg/kg, po. The class given is organism-based. The following applies: in vivo.
Series [9] is described as follows: Toxicity in Swiss mouse assessed as induction of reversible motor depression at 5 mg/kg, po measured at first 15 mins post dosing. In kind it is organism-based. The following applies: in vivo, 0.25 h.
Series [10] in a line: Toxicity in male Swiss mouse assessed as induction of reversible motor depression at 20 mg/kg, po. In kind it is organism-based. The conditions noted are these: in vivo.
Series [11] can be described thus: Toxicity in female Swiss mouse assessed as induction of reversible motor depression at 20 mg/kg, po. The class given is organism-based. The following applies: in vivo.

A value given as a limit tells only on which side of the number the result lay.

For the molecule `CCc1nn(C)c(C(=O)NCc2ccc(Oc3ccc(Cl)cc3)cc2)c1Cl`, the IC50 (commonly the concentration at which inhibition is half-maximal) in [1] came to 80 nM; in [2], 8700 nM. For the same molecule, in series [3], the “Ratio IC50” value came to 6. Further, in [4], the IC50 at 48 h was less than 6000 nM. Further, the half-maximal inhibitory concentration (IC50) at 1 h in series [5] turned out to be 510 nM.
Consider `Cc1ccc(Oc2ccc(CNC(=O)c3c(F)cnn3C)cc2)cc1`, for which the figures for the IC50 in [1] and in series [2] were 10 nM and 13700 nM, respectively. In series [6], the MTD is 20 mg/kg. In addition, the “Ratio IC50” value in series [3] is 430. For the same molecule, the Activity entry in [7] and in [8] was “Toxic” throughout. In [4], the half-inhibitory concentration (IC50) at 48 h is less than 6000 nM. Further, the 50% inhibitory concentration (IC50) at 1 h in series [5] was 4300 nM.
Take `CCc1nc(-c2ccc(CNC(=O)c3ccnn3C)cc2)no1`: the half-maximal inhibitory concentration (IC50) in series [1] is 200 nM; in series [2], more than 100000 nM. In addition, in series [6], the MTD is 1 mg/kg. For the same molecule, the “Ratio IC50” value in series [3] is recorded as 7. Further, the IC50 at 48 h in series [4] is less than 6000 nM. The IC50 at 1 h in series [5] stood at 1300 nM. In series [9], the Activity entry was “Toxic”.
Turning to `CCc1nc(-c2ccc(CNC(=O)c3c(Cl)c(CC)nn3C)cc2)no1`, the IC50 in [1] is 2 nM; in [2] it was more than 50000 nM. Besides, the “Ratio IC50” value in series [3] is listed as 80. Besides, the IC50 at 48 h in series [4] was less than 6000 nM. The 50% inhibitory concentration (IC50) at 1 h in series [5] came to 160 nM.
Take `Cn1ncc(Cl)c1C(=O)NCc1ccc(-c2noc(C3CC3)n2)cc1`: the half-inhibitory concentration (IC50) in [1] stood at 0.9 nM; in [2], 24300 nM. Also, in series [6], the MTD was 1 mg/kg. Moreover, the “Ratio IC50” value in series [3] amounted to 4144. In addition, the 50% inhibitory concentration (IC50) at 48 h in series [4] was less than 6000 nM. The concentration for half-maximal inhibition (IC50) at 1 h in [5] is 3730 nM. Also, the Activity result in series [9] is on record as “Toxic”.
Consider `Cc1nn(C)c(C(=O)NCc2ccc(Oc3ccc(Cl)cc3)cc2)c1Cl`, for which the results for the IC50 in series [1] and in series [2] were less than 0.7 nM and 50000 nM, respectively. Moreover, the “Ratio IC50” value in [3] was 181. Also, the half-maximal inhibitory concentration (IC50) at 48 h in [4] is less than 6000 nM. Further, in series [5], the half-inhibitory concentration (IC50) at 1 h amounted to 1270 nM.
As for `Cn1ncc(Cl)c1C(=O)NCc1ccc(Oc2ccc(Cl)cc2)cc1`, the IC50 in series [1] is 1 nM; in series [2], more than 50000 nM. Besides, in [6], the MTD amounted to 5 mg/kg. In series [3], the “Ratio IC50” value is 1700. Also, the IC50 at 48 h in [4] was less than 6000 nM. Besides, the Activity entry in [10] and in [11] was “Toxic” each time. Moreover, the IC50 at 1 h in series [5] is 1700 nM.
Consider `Cn1ncc(Cl)c1C(=O)NCc1ccc(Oc2ccc(Cl)nc2)cc1`, for which the IC50 in [1] was 30 nM; in [2] it was more than 50000 nM. Moreover, the MTD in series [6] was 1 mg/kg. Moreover, the “Ratio IC50” value in series [3] is reported as 63. The IC50 at 48 h in series [4] is less than 6000 nM. In addition, the half-inhibitory concentration (IC50) at 1 h in series [5] was 1900 nM. For the same molecule, in series [9], the Activity result is given as “Toxic”.
On to `Cc1nn(C)c(C(=O)NCc2ccc(Oc3ccc(Cl)nc3)cc2)c1Cl`, for which the values for the IC50 in series [1] and in [2] were 0.3 nM and more than 50000 nM, respectively. Further, in series [6], the MTD came out at 1 mg/kg. Moreover, the “Ratio IC50” value in series [3] is 500. Also, in [4], the IC50 at 48 h was less than 6000 nM. Moreover, in [5], the IC50 at 1 h came to 150 nM. Also, the Activity entry in [9] is “Toxic”.
In the case of `CCc1nn(C)c(C(=O)NCc2ccc(Oc3ccc(C)cc3)cc2)c1Cl` [TOLFENPYRAD], the IC50 in [1] came out at 20 nM; in series [2], 33700 nM. Besides, in [6], the MTD came out at 1 mg/kg. The “Ratio IC50” value in series [3] amounted to 55. Further, the 50% inhibitory concentration (IC50) at 48 h in [4] is less than 6000 nM. In addition, in [5], the half-inhibitory concentration (IC50) at 1 h is 1100 nM. Further, the Activity result in series [9] is “Toxic”.

These data come from ChEMBL document CHEMBL4765471, “1-Methyl-1H-pyrazole-5-carboxamide Derivatives Exhibit Unexpected Acute Mammalian Toxicity” (J Med Chem, 2021).
